Patent publication US8969325B2, “TRPV1 antagonists” (AbbVie Inc., priority 2011, dated 2015)

What was measured:
human TRPV1 [1] = target: T1, human TRPV1 (Homo sapiens (Human), UniProt Q8NER1); test: Capsaicin Activation Assay (intracellular Ca2+, FLIPR); type: cell-based; details: recombinant HEK293 cells expressing hTRPV1, 50 nM capsaicin
Outline: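 Ca2+ fluorescence was recorded by FLIPR every 1 to 5 seconds in HEK293 cells, clonally selected for stable human TRPV1 expression and plated one day ahead. Test compounds came as serial dilutions of 10 mM DMSO stocks.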

human TRPV1 [2] = target: T1, human TRPV1; test: Acid Activation Assay (pH 5.0, intracellular Ca2+, FLIPR); type: cell-based; details: percentage of the maximal pH 5.0-induced response remaining; recombinant HEK293 hTRPV1 cells; maximum concentration tested 37.5 μM
Outline: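 Readout: peak [Ca2+]i fluorescence over baseline on FLIPR, expressed as percentage remaining of the maximal pH 5.0-evoked signal. Stable hTRPV1-HEK293 cells with Calcium-4 dye received compound (12 half-log concentrations, maximum 37.5 μM) 3 min before acidic pH 5.0 buffer.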

T1 sequence (Q8NER1 whole entry): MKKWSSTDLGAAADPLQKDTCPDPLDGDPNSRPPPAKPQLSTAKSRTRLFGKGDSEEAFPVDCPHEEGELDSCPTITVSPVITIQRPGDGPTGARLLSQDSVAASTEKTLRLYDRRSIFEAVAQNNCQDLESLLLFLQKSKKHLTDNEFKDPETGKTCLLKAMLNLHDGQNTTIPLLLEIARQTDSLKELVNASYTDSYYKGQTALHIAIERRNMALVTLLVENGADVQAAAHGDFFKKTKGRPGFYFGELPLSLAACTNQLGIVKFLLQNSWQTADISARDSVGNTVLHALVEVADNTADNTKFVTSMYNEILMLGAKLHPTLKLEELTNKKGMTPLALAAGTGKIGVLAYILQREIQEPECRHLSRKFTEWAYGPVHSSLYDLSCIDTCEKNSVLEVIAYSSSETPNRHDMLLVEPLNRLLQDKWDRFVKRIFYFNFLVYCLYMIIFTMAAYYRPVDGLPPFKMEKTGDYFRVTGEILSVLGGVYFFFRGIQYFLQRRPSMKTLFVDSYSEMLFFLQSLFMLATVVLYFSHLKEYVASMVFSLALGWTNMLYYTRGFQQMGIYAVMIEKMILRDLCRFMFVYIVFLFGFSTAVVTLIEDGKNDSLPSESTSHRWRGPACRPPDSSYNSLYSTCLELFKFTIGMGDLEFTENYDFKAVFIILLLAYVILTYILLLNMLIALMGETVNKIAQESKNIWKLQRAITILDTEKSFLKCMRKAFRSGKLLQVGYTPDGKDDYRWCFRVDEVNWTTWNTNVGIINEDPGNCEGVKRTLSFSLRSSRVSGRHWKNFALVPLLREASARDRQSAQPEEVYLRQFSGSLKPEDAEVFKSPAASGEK

SMILES	IC50 (human TRPV1 [1])	human TRPV1 H^+ (max % remain) (human TRPV1 [2])
C[C@@]1(CF)C[C@@H](NC(=O)Nc2ccc3c(c2)NC(=O)N(CCO)C3)c2ccc(Cl)cc2O1 [Example 59, 1-[(2S,4R)-7-chloro-2-(fluoromethyl)-2-methyl-3,4-dihydro-2H-chromen-4-yl]-3-[3-(2-hydroxyethyl)-2-oxo-1,2,3,4-tetrahydroquinazolin-7-yl]urea]	1500 nM	2%
CN1Cc2ccc(NC(=O)N[C@@H]3CC(C)(C)Oc4c3cccc4C(F)(F)F)cc2NC1=O [Example 16, 1-[(4R)-2,2-dimethyl-8-(trifluoromethyl)-3,4-dihydro-2H-chromen-4-yl]-3-(3-methyl-2-oxo-1,2,3,4-tetrahydroquinazolin-7-yl)urea]	100 nM	53%
CN1Cc2ccc(NC(=O)N[C@@H]3C[C@](C)(C(F)F)Oc4ccccc43)cc2NC1=O [Example 207, 1-[(2R,4R)-2-(difluoromethyl)-2-methyl-3,4-dihydro-2H-chromen-4-yl]-3-(3-methyl-2-oxo-1,2,3,4-tetrahydroquinazolin-7-yl)urea]	330 nM	57%
O=C(Nc1ccc2c(c1)NC(=O)N(CCO)C2)N[C@@H]1CCOc2cc(C(F)(F)F)ccc21 [Example 54, 1-[3-(2-hydroxyethyl)-2-oxo-1,2,3,4-tetrahydroquinazolin-7-yl]-3-[(4R)-7-(trifluoromethyl)-3,4-dihydro-2H-chromen-4-yl]urea]	260 nM	1%
CN1C(=O)NCc2c(NC(=O)N[C@@H]3CC(C)(C)Oc4cc(C(F)(F)F)ccc43)cccc21 [Example 150, 1-[(4R)-2,2-dimethyl-7-(trifluoromethyl)-3,4-dihydro-2H-chromen-4-yl]-3-(1-methyl-2-oxo-1,2,3,4-tetrahydroquinazolin-5-yl)urea]	16 nM	20%
CN1C(=O)NCc2c(NC(=O)N[C@@H]3CC(CF)(CF)Oc4cc(OC(F)(F)F)ccc43)cccc21 [Example 149, 1-[(4R)-2,2-bis(fluoromethyl)-7-(trifluoromethoxy)-3,4-dihydro-2H-chromen-4-yl]-3-(1-methyl-2-oxo-1,2,3,4-tetrahydroquinazolin-5-yl)urea]	120 nM	16%
CN1Cc2ccc(NC(=O)N[C@@H]3CC(CF)(CF)Oc4ccc(F)cc43)cc2NC1=O [Example 186, 1-[(4R)-6-fluoro-2,2-bis(fluoromethyl)-3,4-dihydro-2H-chromen-4-yl]-3-(3-methyl-2-oxo-1,2,3,4-tetrahydroquinazolin-7-yl)urea]	1500 nM	58%
CCC1(CC)C[C@@H](NC(=O)Nc2ccc3c(c2)NC(=O)CC3)c2cc(F)ccc2O1 [Example 229, 1-[(4R)-2,2-diethyl-6-fluoro-3,4-dihydro-2H-chromen-4-yl]-3-(2-oxo-1,2,3,4-tetrahydroquinolin-7-yl)urea]	74 nM	36%
CN1Cc2ccc(NC(=O)N[C@@H]3CCc4cc(C(C)(C)C)ccc43)cc2NC1=O [Example 179, 1-[(1R)-5-tert-butyl-2,3-dihydro-1H-inden-1-yl]-3-(3-methyl-2-oxo-1,2,3,4-tetrahydroquinazolin-7-yl)urea]	190 nM	37%
CCC1(CC)C[C@@H](NC(=O)Nc2cccc3c2ccc(=O)n3C)c2cc(F)ccc2O1 [Example 74, 1-[(4R)-2,2-diethyl-6-fluoro-3,4-dihydro-2H-chromen-4-yl]-3-(1-methyl-2-oxo-1,2-dihydroquinolin-5-yl)urea]	19 nM	28%
CN1C(=O)CCc2ccc(NC(=O)N[C@@H]3CC(C)(C)Oc4c(F)cccc43)cc21 [Example 257, 1-[(4R)-8-fluoro-2,2-dimethyl-3,4-dihydro-2H-chromen-4-yl]-3-(1-methyl-2-oxo-1,2,3,4-tetrahydroquinolin-7-yl)urea]	21 nM	72%
CN1Cc2ccc(NC(=O)N[C@@H]3CC(CF)(CF)Oc4c3ccc(Cl)c4F)cc2NC1=O [Example 192, 1-[(4R)-7-chloro-8-fluoro-2,2-bis(fluoromethyl)-3,4-dihydro-2H-chromen-4-yl]-3-(3-methyl-2-oxo-1,2,3,4-tetrahydroquinazolin-7-yl)urea]	280 nM	53%
CCC1(CC)C[C@@H](NC(=O)Nc2cccc3c2ccc(=O)n3C)c2ccccc2O1 [Example 67, 1-[(4R)-2,2-diethyl-3,4-dihydro-2H-chromen-4-yl]-3-(1-methyl-2-oxo-1,2-dihydroquinolin-5-yl)urea]	17 nM	41%
CCC1(CC)C[C@@H](NC(=O)Nc2ccc3c(c2)NC(=O)CO3)c2ccc(C(F)(F)F)cc2O1 [Example 103, 1-[(4R)-2,2-diethyl-7-(trifluoromethyl)-3,4-dihydro-2H-chromen-4-yl]-3-(3-oxo-3,4-dihydro-2H-1,4-benzoxazin-6-yl)urea]	110 nM	75%
O=C1CCc2ccc(NC(=O)N[C@H]3CC(CF)(CF)Oc4cc(Cl)ccc43)cc2N1 [Example 217, 1-[(4S)-7-chloro-2,2-bis(fluoromethyl)-3,4-dihydro-2H-chromen-4-yl]-3-(2-oxo-1,2,3,4-tetrahydroquinolin-7-yl)urea]	430 nM	50%
O=C(Nc1ccc2c(c1)NC(=O)N(CCO)C2)N[C@@H]1CC(CF)(CF)Oc2ccccc21 [Example 314, 1-[(4R)-2,2-bis(fluoromethyl)-3,4-dihydro-2H-chromen-4-yl]-3-[3-(2-hydroxyethyl)-2-oxo-1,2,3,4-tetrahydroquinazolin-7-yl]urea]	57 nM	0%
CN1C(=O)CCc2ccc(NC(=O)N[C@@H]3CC(C)(C)Oc4cc(C(F)(F)F)ccc43)cc21 [Example 265, 1-[(4R)-2,2-dimethyl-7-(trifluoromethyl)-3,4-dihydro-2H-chromen-4-yl]-3-(1-methyl-2-oxo-1,2,3,4-tetrahydroquinolin-7-yl)urea]	660 nM	53%
CC1(C)C[C@@H](NC(=O)Nc2ccc3c(c2)NC(=O)C(N2CCCOCC2)C3)c2ccc(F)cc2O1 (stereo partly drawn) [Example 303, 1-[(4R)-7-fluoro-2,2-dimethyl-3,4-dihydro-2H-chromen-4-yl]-3-[3-(1,4-oxazepan-4-yl)-2-oxo-1,2,3,4-tetrahydroquinolin-7-yl]urea]	610 nM	2%
COCC1(COC)C[C@@H](NC(=O)Nc2ccc3c(c2)N(C)C(=O)CC3)c2cc(F)ccc2O1 [Example 279, 1-[(4R)-6-fluoro-2,2-bis(methoxymethyl)-3,4-dihydro-2H-chromen-4-yl]-3-(1-methyl-2-oxo-1,2,3,4-tetrahydroquinolin-7-yl)urea]	510 nM	50%
CCC1(CC)C[C@@H](NC(=O)Nc2cccc3c2ccc(=O)n3C)c2ccc(C(F)(F)F)cc2O1 [Example 69, 1-[(4R)-2,2-diethyl-7-(trifluoromethyl)-3,4-dihydro-2H-chromen-4-yl]-3-(1-methyl-2-oxo-1,2-dihydroquinolin-5-yl)urea]	55 nM	13%
C[C@@]1(CF)C[C@@H](NC(=O)Nc2ccc3c(c2)NC(=O)N(CCO)C3)c2ccc(C(F)(F)F)cc2O1 [Example 58, 1-[(2S,4R)-2-(fluoromethyl)-2-methyl-7-(trifluoromethyl)-3,4-dihydro-2H-chromen-4-yl]-3-[3-(2-hydroxyethyl)-2-oxo-1,2,3,4-tetrahydroquinazolin-7-yl]urea]	63 nM	2%
CCC1(CC)C[C@@H](NC(=O)Nc2ccc3c(c2)NC(=O)CC3)c2ccc(Cl)c(Cl)c2O1 [Example 226, 1-[(4R)-7,8-dichloro-2,2-diethyl-3,4-dihydro-2H-chromen-4-yl]-3-(2-oxo-1,2,3,4-tetrahydroquinolin-7-yl)urea]	100 nM	12%
CN1Cc2ccc(NC(=O)N[C@@H]3C[C@](C)(CF)Oc4cc(C(F)(F)F)ccc43)cc2NC1=O [Example 206, 1-[(2R,4R)-2-(fluoromethyl)-2-methyl-7-(trifluoromethyl)-3,4-dihydro-2H-chromen-4-yl]-3-(3-methyl-2-oxo-1,2,3,4-tetrahydroquinazolin-7-yl)urea]	240 nM	43%
C[C@]1(C(F)F)C[C@@H](NC(=O)Nc2ccc3c(c2)NC(=O)CO3)c2ccccc2O1 [Example 131, 1-[(2R,4R)-2-(difluoromethyl)-2-methyl-3,4-dihydro-2H-chromen-4-yl]-3-(3-oxo-3,4-dihydro-2H-1,4-benzoxazin-6-yl)urea]	360 nM	89%
CCC1(CC)C[C@@H](NC(=O)Nc2ccc3c(c2)N(C)C(=O)CC3)c2ccc(C(F)(F)F)cc2O1 [Example 261, 1-[(4R)-2,2-diethyl-7-(trifluoromethyl)-3,4-dihydro-2H-chromen-4-yl]-3-(1-methyl-2-oxo-1,2,3,4-tetrahydroquinolin-7-yl)urea]	220 nM	70%
O=C(Nc1ccc2c(c1)NC(=O)C(N1CCCOCC1)C2)N[C@@H]1CC(CF)(CF)Oc2cc(Cl)ccc21 (stereo partly drawn) [Example 302, 1-[(4R)-7-chloro-2,2-bis(fluoromethyl)-3,4-dihydro-2H-chromen-4-yl]-3-[3-(1,4-oxazepan-4-yl)-2-oxo-1,2,3,4-tetrahydroquinolin-7-yl]urea]	200 nM	36%
